Test results published in the NIST ThermoML archive (doi:10.1021/je200434a).
± gives the expanded uncertainty stated by the source.

Conditions: 101.33 kPa, Liquid; for viscosity: Concentric cylinders viscometry; for mass density: Vibrating tube method

CCCCCCOS(=O)(=O)[O-].CC[n+]1ccn(C)c1 [3-ethyl-1-methyl-1H-imidazolium hexyl sulfate]
Conditions | mass density [kg/m3] | viscosity [mPa·s]
283.15 K | – | 875 ± 48
288.15 K | – | 604 ± 31
293.15 K | 1133.8 ± 1.1 | 428.3 ± 21
294.15 K | 1133.12 ± 1.1 | –
295.15 K | 1132.45 ± 1.1 | –
296.15 K | 1131.77 ± 1.1 | –
297.15 K | 1131.09 ± 1.1 | –
298.15 K | 1130.42 ± 1.1 | 311.4 ± 15
299.15 K | 1129.74 ± 1.1 | –
300.15 K | 1129.07 ± 1.1 | –
301.15 K | 1128.4 ± 1.1 | –
302.15 K | 1127.72 ± 1.1 | –
303.15 K | 1127.05 ± 1.1 | 231.5 ± 10
304.15 K | 1126.38 ± 1.1 | –
305.15 K | 1125.71 ± 1.1 | –
306.15 K | 1125.04 ± 1.1 | –
307.15 K | 1124.37 ± 1.1 | –
308.15 K | 1123.7 ± 1.1 | 175.7 ± 7.8
309.15 K | 1123.03 ± 1.1 | –
310.15 K | 1122.36 ± 1.1 | –
311.15 K | 1121.7 ± 1.1 | –
312.15 K | 1121.03 ± 1.1 | –
313.15 K | 1120.37 ± 1.1 | 135.9 ± 5.9
314.15 K | 1119.7 ± 1.1 | –
315.15 K | 1119.04 ± 1.1 | –
316.15 K | 1118.38 ± 1.1 | –
317.15 K | 1117.72 ± 1.1 | –
318.15 K | 1117.06 ± 1.1 | 106.9 ± 4.5
319.15 K | 1116.4 ± 1.1 | –
320.15 K | 1115.74 ± 1.1 | –
321.15 K | 1115.08 ± 1.1 | –
322.15 K | 1114.42 ± 1.1 | –
323.15 K | 1113.77 ± 1.1 | 85.4 ± 3.6
324.15 K | 1113.12 ± 1.1 | –
325.15 K | 1112.46 ± 1.1 | –
326.15 K | 1111.81 ± 1.1 | –
327.15 K | 1111.16 ± 1.1 | –
328.15 K | 1110.51 ± 1.1 | 69.2 ± 2.9
329.15 K | 1109.86 ± 1.1 | –
330.15 K | 1109.21 ± 1.1 | –
331.15 K | 1108.56 ± 1.1 | –
332.15 K | 1107.92 ± 1.1 | –
333.15 K | 1107.27 ± 1.1 | 56.8 ± 2.3
334.15 K | 1106.63 ± 1.1 | –
335.15 K | 1105.98 ± 1.1 | –
336.15 K | 1105.33 ± 1.1 | –
337.15 K | 1104.69 ± 1.1 | –
338.15 K | 1104.05 ± 1.1 | 47.2 ± 2
339.15 K | 1103.41 ± 1.1 | –
340.15 K | 1102.77 ± 1.1 | –
341.15 K | 1102.13 ± 1.1 | –
342.15 K | 1101.49 ± 1.1 | –
343.15 K | 1100.85 ± 1.1 | 39.6 ± 1.6
344.15 K | 1100.21 ± 1.1 | –
345.15 K | 1099.57 ± 1.1 | –
346.15 K | 1098.93 ± 1.1 | –
347.15 K | 1098.3 ± 1 | –
348.15 K | 1097.66 ± 1 | 33.6 ± 1.4
349.15 K | 1097.02 ± 1 | –
350.15 K | 1096.39 ± 1 | –
351.15 K | 1095.75 ± 1 | –
352.15 K | 1095.12 ± 1 | –
353.15 K | 1094.49 ± 1 | 28.8 ± 1.2
354.15 K | 1093.85 ± 1 | –
355.15 K | 1093.22 ± 1 | –
356.15 K | 1092.59 ± 1 | –
357.15 K | 1091.95 ± 1 | –
358.15 K | 1091.32 ± 1 | 24.8 ± 1
359.15 K | 1090.69 ± 1 | –
360.15 K | 1090.06 ± 1 | –
361.15 K | 1089.43 ± 1 | –
362.15 K | 1088.8 ± 1 | –
363.15 K | 1088.17 ± 1 | 21.6 ± 0.9
368.15 K | – | 18.9 ± 0.8
373.15 K | – | 16.7 ± 0.7

CCn1cc[n+](C)c1.COS(=O)(=O)[O-] [1-ethyl-3-methylimidazolium methylsulfate]
Conditions | mass density [kg/m3] | viscosity [mPa·s]
283.15 K | – | 169.5 ± 7.3
288.15 K | – | 128.6 ± 5.4
293.15 K | 1289.48 ± 0.53 | 99.7 ± 4.1
294.15 K | 1288.8 ± 0.53 | –
295.15 K | 1288.1 ± 0.53 | –
296.15 K | 1287.41 ± 0.53 | –
297.15 K | 1286.71 ± 0.53 | –
298.15 K | 1286.02 ± 0.53 | 78.8 ± 3.2
299.15 K | 1285.33 ± 0.53 | –
300.15 K | 1284.64 ± 0.52 | –
301.15 K | 1283.95 ± 0.52 | –
302.15 K | 1283.26 ± 0.52 | –
303.15 K | 1282.57 ± 0.52 | 63.4 ± 2.6
304.15 K | 1281.89 ± 0.52 | –
305.15 K | 1281.2 ± 0.52 | –
306.15 K | 1280.52 ± 0.52 | –
307.15 K | 1279.84 ± 0.52 | –
308.15 K | 1279.15 ± 0.52 | 51.8 ± 2.1
309.15 K | 1278.48 ± 0.52 | –
310.15 K | 1277.8 ± 0.52 | –
311.15 K | 1277.12 ± 0.52 | –
312.15 K | 1276.44 ± 0.52 | –
313.15 K | 1275.76 ± 0.52 | 42.9 ± 1.7
314.15 K | 1275.09 ± 0.52 | –
315.15 K | 1274.41 ± 0.52 | –
316.15 K | 1273.74 ± 0.52 | –
317.15 K | 1273.07 ± 0.52 | –
318.15 K | 1272.4 ± 0.52 | 35.9 ± 1.5
319.15 K | 1271.72 ± 0.52 | –
320.15 K | 1271.05 ± 0.52 | –
321.15 K | 1270.38 ± 0.52 | –
322.15 K | 1269.71 ± 0.52 | –
323.15 K | 1269.04 ± 0.51 | 30.5 ± 1.2
324.15 K | 1268.37 ± 0.51 | –
325.15 K | 1267.71 ± 0.51 | –
326.15 K | 1267.04 ± 0.51 | –
327.15 K | 1266.38 ± 0.51 | –
328.15 K | 1265.71 ± 0.51 | 26.1 ± 1.1
329.15 K | 1265.05 ± 0.51 | –
330.15 K | 1264.39 ± 0.51 | –
331.15 K | 1263.72 ± 0.51 | –
332.15 K | 1263.06 ± 0.51 | –
333.15 K | 1262.4 ± 0.51 | 22.6 ± 0.9
334.15 K | 1261.74 ± 0.51 | –
335.15 K | 1261.08 ± 0.51 | –
336.15 K | 1260.42 ± 0.51 | –
337.15 K | 1259.76 ± 0.51 | –
338.15 K | 1259.1 ± 0.51 | 19.7 ± 0.8
339.15 K | 1258.44 ± 0.51 | –
340.15 K | 1257.78 ± 0.51 | –
341.15 K | 1257.13 ± 0.51 | –
342.15 K | 1256.47 ± 0.51 | –
343.15 K | 1255.81 ± 0.51 | 17.3 ± 0.7
344.15 K | 1255.15 ± 0.51 | –
345.15 K | 1254.5 ± 0.51 | –
346.15 K | 1253.84 ± 0.5 | –
347.15 K | 1253.19 ± 0.5 | –
348.15 K | 1252.54 ± 0.5 | 15.3 ± 0.6
349.15 K | 1251.88 ± 0.5 | –
350.15 K | 1251.23 ± 0.5 | –
351.15 K | 1250.58 ± 0.5 | –
352.15 K | 1249.93 ± 0.5 | –
353.15 K | 1249.28 ± 0.5 | 13.6 ± 0.6
354.15 K | 1248.63 ± 0.5 | –
355.15 K | 1247.98 ± 0.5 | –
356.15 K | 1247.33 ± 0.5 | –
357.15 K | 1246.68 ± 0.5 | –
358.15 K | 1246.03 ± 0.5 | 12.2 ± 0.5
359.15 K | 1245.38 ± 0.5 | –
360.15 K | 1244.74 ± 0.5 | –
361.15 K | 1244.09 ± 0.5 | –
362.15 K | 1243.44 ± 0.5 | –
363.15 K | 1242.8 ± 0.5 | 11 ± 0.4
368.15 K | – | 9.9 ± 0.4
373.15 K | – | 9 ± 0.4
